For 83 molecules, IC50 results are on record in PubChem BioAssay AID588780 (Sanford-Burnham Center for Chemical Genomics, 2011).

Each structure is given as a SMILES string. The source made the active and inactive calls.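 How the source made its calls: active means compounds whose fitted half-maximal concentration in the cell-protection dose series is at or below a set limit; inactive means the rest.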

As a reminder, the IC50 is the concentration that gives 50% inhibition.

The test system of the assay is H9c2 cardiomyocytes, 2-deoxyglucose stress, ATP luminescence, 2 h. The assay is described as follows: protection of cardiomyocytes from 2-deoxyglucose injury, dose response, cell-based, 2-deoxyglucose stress, uHTS hits (AID 588780).
`Cc1ccc(S(=O)(=O)N2CCOCC2)cc1C(=O)Nc1nc(-c2ccccn2)cs1`: the IC50 is 9.58 µM. The value for `O=C(COC(=O)c1c2c(nc3ccccc13)/C(=C/c1cccc([N+](=O)[O-])c1)CCC2)NC1CCS(=O)(=O)C1` (stereo not drawn) was 13.4 µM; that for `COc1cccc(NC(=O)CN(C)C(=O)CCCc2nc3ccccc3c(=O)[nH]2)c1` was > 79 µM (inactive); that for `COc1cc(/C=C(\C#N)c2nc3ccc(C)cc3[nH]2)c([N+](=O)[O-])cc1OC` was 18 µM. With `COc1ccc2c(c1OC)c(=O)n1c3ccc(OC(C)C(=O)NCCN4CCOCC4)cc3c3ccnc2c31` (stereo not drawn), the IC50 was 29.3 µM.

As to `O=C(Nc1ccccc1)c1nc[nH]c1C(=O)NCCCCNC(=O)c1[nH]cnc1C(=O)Nc1ccccc1`, the IC50 was > 79 µM (inactive). The value for `CCN(CC(=O)Nc1cc(Cl)ccc1C)C(=O)CCc1nc2ccccc2c(=O)[nH]1` was > 79 µM (inactive); that for `COc1ccc(-c2cc3nc(-c4ccccc4)cc(N4CCN(C(C)=O)CC4)n3n2)cc1` was 12 µM; that for `O=C1NC(c2cccs2)Nc2ccccc21` (stereo not drawn) was > 79 µM (inactive). The value for `C[C@@H]1CN([C@H](C)CO)S(=O)(=O)c2ccc(C#Cc3ccccc3F)cc2O[C@H]1CN(C)C(=O)c1ccc2c(c1)OCO2` was > 79 µM (inactive); that for `CCOC(=O)C1CCCN(C(=O)CCC(=O)Nc2ccc3nc(N4CCOCC4)cc(C)c3c2)C1` (stereo not drawn) was 11 µM; that for `Cc1cc(Br)cc(C=Nc2ccc(N3CCOCC3)cc2)c1O` was 58.4 µM (inactive). Consider `Cc1ccc2nc(SCc3nc4ccccc4c(=O)[nH]3)[nH]c2c1`, for which the IC50 was > 79 µM (inactive). Then `CCOc1ccc2[nH]c(=O)c(CN(CCO)C3(c4nnnn4C4CCCCC4)CCCCC3)cc2c1`, with 35.1 µM (inactive); and `C=CCc1ccccc1OCC(=O)N/N=C/c1ccc(OC(C)=O)cc1OC(C)=O`, with > 79 µM (inactive). As for `COc1cc(C(=O)NCCCNc2nc3cc(C)cc(C)c3cc2C#N)cc(OC)c1OC`, the IC50 is 45.6 µM (inactive). For `CC(=O)NCc1ccc(-c2csc(NC(=O)CCc3nc4ccccc4c(=O)[nH]3)n2)s1`, the IC50 was > 79 µM (inactive). In the case of `CCOC(=O)c1cc(-c2nnc(-c3cc(OC)c(OC)c(OC)c3)o2)c(C)nc1C`, the IC50 was > 79 µM (inactive). Then `Oc1ccc(Cl)cc1C=Nc1ccc(Br)cc1`, with > 79 µM (inactive). Take `CC(=O)Nc1ccc(-c2csc(NC(=O)Nc3ccccc3)n2)cc1`: the IC50 is 36.3 µM (inactive). The value for `COc1ccc(-n2cc(-c3ccccc3)c3c(N4CCOCC4)ncnc32)cc1` was > 79 µM (inactive); that for `O=C(CCCSc1nc2sc3c(c2c(=O)[nH]1)CCC3)NCCO` was > 79 µM (inactive). As for `Cc1ccc(C)c2[nH]c(=O)c(CN(Cc3ccc4c(c3)OCO4)Cc3nnnn3Cc3ccco3)cc12`, the IC50 was 13.1 µM. The value for `C[C@@H]1ON(C)[C@H]2C[C@H]3c4[nH]c5ccc(-c6ccc7c(c6)OCO7)cc5c4CCN3C[C@@H]12` was 54.8 µM (inactive). The value for `CCN(CC)CCNC(=O)CCc1n[nH]c(=O)c2ccccc12` was > 79 µM (inactive); that for `O=c1[nH]nc(-c2cccs2)c2ccccc12` was 5.51 µM. For the molecule `Cc1cc(NC(=O)COC(=O)Cn2[nH]c(=O)c3ccccc3c2=O)c([N+](=O)[O-])cc1C`, the IC50 is > 79 µM (inactive). The value for `CCOC(=O)c1c2ccc(OCC(=O)N/N=C/c3ccc(C)cc3)cc2n2ccccc12` was > 79 µM (inactive); that for `CCOC(=O)C1=c2s/c(=C\c3ccncc3)c(=O)n2C(N)=C(C(=O)OC)C1c1ccncc1` (stereo not drawn) was > 79 µM (inactive).

Consider `Cc1cnc(C=O)c2cccc([N+](=O)[O-])c12`, for which the IC50 was 44.6 µM (inactive).

In the case of `O=C(NCCc1c[nH]c2ccccc12)C(=O)NCC(c1ccco1)N1CCN(c2ccccc2F)CC1` (stereo not drawn), the IC50 was > 79 µM (inactive). For `NC(=O)c1cccc(Nc2nc(C(N)CCc3ccccc3)cs2)n1` (stereo not drawn), the IC50 is > 79 µM (inactive). As for `COc1ccc2c(c1OC)C(=O)N1c3ccccc3C(=O)N(c3ccccc3)C21` (stereo not drawn), the IC50 was > 79 µM (inactive). Then `Cc1ccc(-c2nn3c(C)nnc3s2)cc1NC(=O)COc1ccc(Cl)cc1`, with > 79 µM (inactive); and `CCN(CC)CCn1c2c(c(SCC(=O)Nc3cccc(C(C)=O)c3)nc1=O)CCCC2`, with 13.1 µM; and `O=C(CCc1nc2ccccc2c(=O)[nH]1)NNC(=O)c1cccc(Cl)c1`, with > 79 µM (inactive). Then `CC(C)(C)OC(=O)CNC(=O)c1[nH]cnc1C(=O)NCC(=O)OCc1ccccc1`, with > 79 µM (inactive); and `Cc1nn(-c2ccccc2)c(C)c1/C=N/NC(=O)c1cc(C2CC2)[nH]n1`, with 12.5 µM; and `Cc1cccc(NC(=O)c2cc(-c3ccco3)nc3ccccc23)n1`, with > 79 µM (inactive). `Brc1ccc(CSc2ccc3nnc(-c4cccnc4)n3n2)cc1`: the IC50 is > 79 µM (inactive). As to `O=C1NC(c2ccc(Cl)c([N+](=O)[O-])c2)Nc2ccccc21` (stereo not drawn), the IC50 is > 79 µM (inactive).

On to `NS(=O)(=O)c1ccc(N=Cc2c(O)n(-c3nccs3)c(=O)c3ccccc23)cc1`, for which the IC50 was > 79 µM (inactive). The value for `O=C(CCc1nc2ccccc2c(=O)[nH]1)NCC(=O)Nc1ccc(F)c(F)c1` was > 79 µM (inactive); that for `COCc1c(C(=O)Nc2ccc3nc(N4CCOCC4)sc3c2)oc2ccccc12` was > 79 µM (inactive); that for `CCOc1ccc(NCc2cc3c(C(C)(C)C)nn(-c4ccccc4)c3[nH]c2=O)cc1` was > 79 µM (inactive). Consider `COc1cccc(-c2ccc(SCC(=O)N3CCN(c4ccccc4)CC3)nn2)c1`, for which the IC50 is > 79 µM (inactive). For `CC1Cc2ccccc2N1C(=O)Cn1nc(C(=O)O)c2ccccc2c1=O` (stereo not drawn), the IC50 was > 79 µM (inactive). As to `c1cncc(-c2nc(NCC3COc4ccccc4O3)c3ccccc3n2)c1` (stereo not drawn), the IC50 is > 79 µM (inactive). Then `COc1cc(-c2cc(C(=O)Nc3ccccc3N3CCOCC3)c3ccccc3n2)cc(OC)c1OC`, with > 79 µM (inactive). Then `COc1cc(-c2nnc(-c3cc(-c4ccccc4)nc4ccccc34)o2)cc(OC)c1OC`, with 5.22 µM; and `CC(C)(C)c1nn(-c2ccccc2)c2[nH]c(=O)c(CNCc3ccco3)cc12`, with 40.3 µM (inactive); and `COC(=O)c1cc2c(-c3ccccc3)cc3ccccn3c-2c1C(=O)OC`, with 13 µM. With `COc1ccc(CN(C)C(=O)C(Cc2ccccc2)NC(=O)c2ccccc2)cc1F` (stereo not drawn), the IC50 was 7.05 µM. For `N#CCCN(C(=O)COC(=O)CCc1nc2ccccc2c(=O)[nH]1)c1ccccc1F`, the IC50 was > 79 µM (inactive). Then `O=C(NO)c1ccc(C(=O)N(C2CCCCC2)C2CCCCC2)cc1`, with > 79 µM (inactive).

As to `COc1cc(/C=C/C(=O)Nc2ccc3nc4n(c(=O)c3c2)CCCC4)cc(OC)c1OC`, the IC50 was 24.2 µM. In the case of `CSc1nc2ncc3c(n2n1)CC1c2ccccc2CCN1C3=O` (stereo not drawn), the IC50 was > 79 µM (inactive). In the case of `CC(C)Cn1c(N)c(C(=O)COC(=O)CCc2nc3ccccc3c(=O)[nH]2)c(=O)n(C)c1=O`, the IC50 was > 79 µM (inactive). Then `COc1cccc(/C=N/Nc2ncnc3scc(-c4ccccc4)c23)c1OC`, with > 79 µM (inactive); and `O=C(c1cc(-c2cccnc2)nc2ccc(Br)cc12)N1CCN(c2ncccn2)CC1`, with 9.44 µM; and `CCCN1CCN(C(=O)CCc2nnc3ccc(N4CCN(c5cccc(OC)c5)CC4)nn23)CC1`, with > 79 µM (inactive). On to `CCOC(=O)Cn1c(=NC(=O)c2cc(-c3cccs3)nc3ccccc23)sc2cc(S(N)(=O)=O)ccc21`, for which the IC50 is > 79 µM (inactive). As to `COC(=O)c1cccc(Nc2nc(-c3cccnc3)nc3ccccc23)c1`, the IC50 is > 79 µM (inactive). The value for `CCOc1cc(/C=C/c2nc3ccccc3c(=O)[nH]2)ccc1O` was > 79 µM (inactive); that for `COC(=O)c1ccc(N)c(N=CC2=C(O)CC(C)(C)CC2=O)c1` was 10.8 µM; that for `COc1ccc(NC(=O)COc2cccc3c2CCNC3=O)cc1` was > 79 µM (inactive). For `CC(C)(C)OC(=O)N1CCC(NC(=O)c2nc[nH]c2C(=O)NCC(=O)OCc2ccccc2)CC1`, the IC50 is > 79 µM (inactive). The value for `O=C(c1ccccc1)c1ccc2nc(N3CCN(C(=O)c4ccco4)CC3)c3nncn3c2c1` was 14.9 µM; that for `COc1cccc(Nc2nc3ccccc3n3cnnc23)c1` was 12.5 µM; that for `O=C(OCc1nnc(-c2ccccc2)o1)c1ccc([N+](=O)[O-])s1` was 24.8 µM.

In the case of `CCOC(=O)Cc1n[nH]c(=O)c2ccccc12`, the IC50 was > 79 µM (inactive). `COC(=O)/C=C/c1ccc(OC(=O)OC)c(OC(=O)OC)c1`: the IC50 was > 79 µM (inactive). As for `Cc1sc2nc(SCC(=O)N3CCCC3)[nH]c(=O)c2c1C`, the IC50 was > 79 µM (inactive). The value for `CCOC(=O)c1c(C)[nH]c(C(=O)COc2ccc3ccc(=O)oc3c2)c1C` was > 79 µM (inactive); that for `CCOC(=O)COc1ccc2c3c(c(=O)oc2c1)CCCC3` was > 79 µM (inactive); that for `COc1ccc2[nH]c(=O)c(-c3nnn(-c4ccc(F)cc4)n3)cc2c1` was > 79 µM (inactive). Take `COc1cc(-c2cnc3c(NC=O)cc(-c4cccc(NC(C)=O)c4)cn23)cc(OC)c1OC`: the IC50 was > 79 µM (inactive). Regarding `Cc1ccccc1N(C(=O)c1snc(C(N)=O)c1N)C(C(=O)NCc1ccccc1)c1ccc(O)cc1` (stereo not drawn), the IC50 was 17.8 µM. For the molecule `CC/C(C)=N\N=C\c1c(O)n(CC)c2cc(C3=NNC(=O)CC3)ccc12`, the IC50 is 32.4 µM (inactive). Turning to `CCN(CC(=O)Nc1ccc(OC)cc1)C(=O)c1cc(-c2cccs2)nn1-c1ccccc1`, the half-inhibitory concentration (IC50) was 9.06 µM. `Cn1c2c(c(=O)n(C)c1=O)C(c1cccc([N+](=O)[O-])c1)Nc1ccccc1O2` (stereo not drawn): the IC50 was > 79 µM (inactive). The value for `O=C(COC(=O)c1ccc([N+](=O)[O-])o1)Nc1cccc(S(=O)(=O)N2CCCCC2)c1` was > 79 µM (inactive). `CCn1nc(C(=O)OCC(=O)c2c[nH]c3ccccc23)c2ccccc2c1=O`: the IC50 was 11.6 µM.
